Earlier results as cited in US20150246027A1, “FIXED DOSE PHARMACEUTICAL COMPOSITION COMPRISING DEFERASIROX AND DEFERIPRONE” (CIPLA LIMITED, priority 2012, published 2015).
≈ marks a conversion by molar mass, not a printed value. Entries after “also recorded” stand apart in the source; their conditions may differ.

Experiments:
[1] = for solubility in water (in words): water / aqueous media
[2] = Bio-pharmaceutics Classification System
[3] = oral; majority excreted as inactive glucuronide metabolite

Row | SMILES | solubility at pH 6.8 (in words) ([1]; pH 6.8, until the buffer strength is altered) | solubility in water (in words) [1] | BCS class [2] | permeability (in words) | solubility in water ([1]; water) [mg/mL] | ingested dose excreted as the active form [3]
1 | O=C(O)c1ccc(-n2nc(-c3ccccc3O)nc2-c2ccccc2O)cc1 [Deferasirox, 4-[3,5-bis(2-hydroxyphenyl)-[1,2,4]triazol-1-yl]enzoic acid] | insoluble | highly water-insoluble; also recorded: practically insoluble | Class II | good permeability |  | 
2 | Cc1c(O)c(=O)ccn1C [Deferiprone, 3-hydroxy-1,2-dimethylpyridin-4-one] |  | sparingly soluble |  |  | 12.95 (≈ 93.1 mM) | less than 10%
